The values below come from patent US20220370453A1 (Storm Therapeutics Ltd, priority 2019, published 2022).

Assay [1] has as its target T1, BCDIN3D (Homo sapiens, UniProt Q7Z5W3).
T1 sequence (Q7Z5W3 1-292): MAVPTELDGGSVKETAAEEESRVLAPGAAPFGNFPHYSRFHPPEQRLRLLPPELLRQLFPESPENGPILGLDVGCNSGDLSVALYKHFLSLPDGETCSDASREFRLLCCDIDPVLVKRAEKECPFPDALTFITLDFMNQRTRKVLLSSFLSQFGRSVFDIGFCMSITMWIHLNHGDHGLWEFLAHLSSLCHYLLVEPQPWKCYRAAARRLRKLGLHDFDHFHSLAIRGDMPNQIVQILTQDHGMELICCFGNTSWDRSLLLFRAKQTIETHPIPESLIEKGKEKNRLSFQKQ
Nature of the assay: BCDIN3D IC50 RFMS (RapidFire) assay with mini-helix. It counts as biochemical. To be noted: mini-helix substrate 0.2 μM, SAM 6 μM, 25 nM enzyme. In short, it runs like this:
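25 nM enzyme preincubated 10 min at room temperature with compound (1% DMSO) in 25 mM Tris pH 8.0, 10 mM DTT, 1 mM EDTA, 0.03% BSA. Reaction started with 0.2 μM mini-helix plus 6 μM SAM, run 1 h at 37 °C, quenched with TCA; SAH product quantified by RapidFire MS against isotopic SAH standards.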

In assay [2] the target is T1, BCDIN3D. Nature of the assay: BCDIN3D InCellPulse thermal stability assay in transfected A549 cells. It counts as cell-based. To be noted: transiently transfected A549 cells, heat shock 58° C. 15 min. Put shortly:
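A549 cells transiently expressing BCDIN3D N-terminally fused to ePL ProLabel tag, 1500 cells/well, pre-incubated 1 h at 37 °C with compound (0.6% DMSO). Heat shock 58 °C for 15 min; remaining soluble fusion detected by split β-galactosidase complementation luminescence.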

For `Cn1ncc2c(NC3CC4(C3)CC(F)(F)C4)nc(NCC(N)c3ccccc3)nc21` (stereo not drawn) [Compound 4.82, N6-(2-amino-2-phenyl-ethyl)-N4-(2,2-difluorospiro[3.3]heptan-6-yl)-1-methyl-pyrazolo[3,4-d]pyrimidine-4,6-diamine], the IC50 is 25.6 nM against BCDIN3D [1] and 40.8 nM at BCDIN3D [2].

With `Cn1ncc2c(NC3CCC3)nc(NC[C@H](N)c3ccccc3)nc21` [Compound 4.83, N6-[(2R)-2-amino-2-phenyl-ethyl]-N4-cyclobutyl-1-methyl-pyrazolo[3,4-d]pyrimidine-4,6-diamine], the values for the IC50 at BCDIN3D [1] and against BCDIN3D [2] were 75.5 nM and 94.4 nM, respectively.

Take `Cn1ncc2c(NC3(C)CCC3)nc(NC[C@H](N)c3ccccc3)nc21` [Compound 4.84, N6-[(2R)-2-amino-2-phenyl-ethyl]-1-methyl-N4-(1-methylcyclobutyl)pyrazolo[3,4-d]pyrimidine-4,6-diamine]: the results for the IC50 at BCDIN3D [1] and against BCDIN3D [2] were 137 nM and 125 nM, respectively.

As to `Cn1ncc2c(NC3CC(F)(F)C3)nc(NC[C@H](N)c3ccccc3)nc21` [Compound 4.85, N6-[(2R)-2-amino-2-phenyl-ethyl]-N4-(3,3-difluorocyclobutyl)-1-methyl-pyrazolo[3,4-d]pyrimidine-4,6-diamine], the half-maximal inhibitory concentration (IC50) at BCDIN3D [1] came to 172 nM; on BCDIN3D [2] it was 267 nM.

Consider `Cn1ncc2c(NC3(C)CC(F)(F)C3)nc(NC[C@H](N)c3ccccc3)nc21` [Compound 4.86, N6-[(2R)-2-amino-2-phenyl-ethyl]-N4-(3,3-difluoro-1-methyl-cyclobutyl)-1-methyl-pyrazolo[3,4-d]pyrimidine-4,6-diamine], for which the IC50 at BCDIN3D [1] stood at 1600 nM; at BCDIN3D [2], 1450 nM.

Consider `CC1CC(Nc2nc(NC[C@H](N)c3ccccc3)nc3c2cnn3C)C1` (stereo partly drawn) [Compound 4.87, N6-[(2R)-2-amino-2-phenyl-ethyl]-1-methyl-N4-(3-methylcyclobutyl)pyrazolo[3,4-d]pyrimidine-4,6-diamine], for which the IC50 against BCDIN3D [1] was 50.7 nM; against BCDIN3D [2], 70.9 nM.

Consider `Cn1ncc2c(NC3CC(F)C3)nc(NC[C@H](N)c3ccccc3)nc21` (stereo partly drawn) [Compound 4.88, N6-[(2R)-2-amino-2-phenyl-ethyl]-N4-(3-fluorocyclobutyl)-1-methyl-pyrazolo[3,4-d]pyrimidine-4,6-diamine], for which the IC50 against BCDIN3D [1] amounted to 112 nM; at BCDIN3D [2], 148 nM.

As to `Cn1ncc2c(N[C@H]3C[C@H](F)C3)nc(NC[C@H](N)c3ccccc3)nc21` [Compound 4.89, N6-[(2R)-2-amino-2-phenyl-ethyl]-N4-(3-fluorocyclobutyl)-1-methyl-pyrazolo[3,4-d]pyrimidine-4,6-diamine], the results for the IC50 on BCDIN3D [1] and on BCDIN3D [2] were 109 nM and 223 nM, respectively.

`Cn1ncc2c(N[C@H]3C[C@@H](F)C3)nc(NC[C@H](N)c3ccccc3)nc21` [Compound 4.90, N6-[(2R)-2-amino-2-phenyl-ethyl]-N4-(3-fluorocyclobutyl)-1-methyl-pyrazolo[3,4-d]pyrimidine-4,6-diamine]: the IC50 against BCDIN3D [1] is 576 nM; against BCDIN3D [2] it was 989 nM.

Take `Cn1ncc2c(NC3CC(C#N)C3)nc(NC[C@H](N)c3ccccc3)nc21` (stereo partly drawn) [Compound 4.91, 3-[[6-[[(2R)-2-amino-2-phenyl-ethyl]amino]-1-methyl-pyrazolo[3,4-d]pyrimidin-4-yl]amino]cyclobutanecarbonitrile]: the IC50 is 129 nM at BCDIN3D [1] and 263 nM against BCDIN3D [2].

For `COC1CC(Nc2nc(NC[C@H](N)c3ccccc3)nc3c2cnn3C)C1` (stereo partly drawn) [Compound 4.92, N6-[(2R)-2-amino-2-phenyl-ethyl]-N4-(3-methoxycyclobutyl)-1-methyl-pyrazolo[3,4-d]pyrimidine-4,6-diamine], the IC50 on BCDIN3D [1] was determined as 343 nM; on BCDIN3D [2] it was 461 nM.

Take `Cn1ncc2c(NC3CC(Cl)(Cl)C3)nc(NC[C@H](N)c3ccccc3)nc21` [Compound 4.93, N6-[(2R)-2-amino-2-phenyl-ethyl]-N4-(3,3-dichlorocyclobutyl)-1-methyl-pyrazolo[3,4-d]pyrimidine-4,6-diamine]: the IC50 on BCDIN3D [1] was 25.8 nM; on BCDIN3D [2] it was 72 nM.

On to `Cn1ncc2c(NC3CC4(C3)CC(F)(F)C4)nc(NC[C@H](N)c3ccccc3)nc21` [Compound 4.94, N6-[(2R)-2-amino-2-phenyl-ethyl]-N4-(2,2-difluorospiro[3.3]heptan-6-yl)-1-methyl-pyrazolo[3,4-d]pyrimidine-4,6-diamine], for which the IC50 against BCDIN3D [1] stood at 6.1 nM; at BCDIN3D [2] it was 47 nM.

`Cn1ncc2c(NC3CC4(COC4)C3)nc(NC[C@H](N)c3ccccc3)nc21` [Compound 4.95, N6-[(2R)-2-amino-2-phenyl-ethyl]-1-methyl-N4-(2-oxaspiro[3.3]heptan-6-yl)pyrazolo[3,4-d]pyrimidine-4,6-diamine]: the IC50 against BCDIN3D [1] stood at 374 nM; against BCDIN3D [2] it was 456 nM.

Consider `Cn1ncc2c(NC3CC(C)(C)C3)nc(NC[C@H](N)c3ccccc3)nc21` [Compound 4.96, N6-[(2R)-2-amino-2-phenyl-ethyl]-N4-(3,3-dimethylcyclobutyl)-1-methyl-pyrazolo[3,4-d]pyrimidine-4,6-diamine], for which the results for the IC50 on BCDIN3D [1] and at BCDIN3D [2] were 14 nM and 21.8 nM, respectively.

As to `Cn1ncc2c(NC3CC(C)(F)C3)nc(NC[C@H](N)c3ccccc3)nc21` (stereo partly drawn) [Compound 4.97, N6-[(2R)-2-amino-2-phenyl-ethyl]-N4-(3-fluoro-3-methyl-cyclobutyl)-1-methyl-pyrazolo[3,4-d]pyrimidine-4,6-diamine], the values for the IC50 on BCDIN3D [1] and against BCDIN3D [2] were 84.3 nM and 176 nM, respectively.

Consider `C[C@H](Nc1nc(NC[C@H](N)c2ccccc2)nc2c1cnn2C)C(F)(F)F` [Compound 4.98, N6-[(2R)-2-amino-2-phenyl-ethyl]-1-methyl-N4-[(1S)-2,2,2-trifluoro-1-methyl-ethyl]pyrazolo[3,4-d]pyrimidine-4,6-diamine], for which the IC50 on BCDIN3D [1] worked out at 136 nM; at BCDIN3D [2], 232 nM.

As for `Cn1ncc2c(NC3CC4(CCC4)C3)nc(NC[C@H](N)c3ccccc3)nc21` [Compound 4.99, N6-[(2R)-2-amino-2-phenyl-ethyl]-1-methyl-N4-spiro[3.3]heptan-2-yl-pyrazolo[3,4-d]pyrimidine-4,6-diamine], the IC50 was found to be 8 nM against BCDIN3D [1] and 17 nM against BCDIN3D [2].

As to `COCC(C)(C)Nc1nc(NC[C@H](N)c2ccccc2)nc2c1cnn2C` [Compound 4.100, N6-[(2R)-2-amino-2-phenyl-ethyl]-N4-(2-methoxy-1,1-dimethyl-ethyl)-1-methyl-pyrazolo[3,4-d]pyrimidine-4,6-diamine], the IC50 at BCDIN3D [1] turned out to be 1330 nM; against BCDIN3D [2], 1860 nM.

With `CCC(C)(C)Nc1nc(NC[C@H](N)c2ccccc2)nc2c1cnn2C` [Compound 4.101, N6-[(2R)-2-amino-2-phenyl-ethyl]-N4-(1,1-dimethylpropyl)-1-methyl-pyrazolo[3,4-d]pyrimidine-4,6-diamine], the IC50 against BCDIN3D [1] was found to be 463 nM; on BCDIN3D [2] it was 330 nM.

`C[C@H](Nc1nc(NC[C@H](N)c2ccccc2)nc2c1cnn2C)C1CC1` [Compound 4.102, N6-[(2R)-2-amino-2-phenyl-ethyl]-N4-[(1S)-1-cyclopropylethyl]-1-methyl-pyrazolo[3,4-d]pyrimidine-4,6-diamine]: the IC50 against BCDIN3D [1] was 4380 nM; at BCDIN3D [2] it was 2630 nM.

In the case of `CC(C)CNc1nc(NC[C@H](N)c2ccccc2)nc2c1cnn2C` [Compound 4.103, N6-[(2R)-2-amino-2-phenyl-ethyl]-N4-isobutyl-1-methyl-pyrazolo[3,4-d]pyrimidine-4,6-diamine], the IC50 at BCDIN3D [1] turned out to be 321 nM; against BCDIN3D [2], 480 nM.

For the compound `Cn1ncc2c(NCC3CC34CCC4)nc(NC[C@H](N)c3ccccc3)nc21` (stereo partly drawn) [Compound 4.104, N6-[(2R)-2-amino-2-phenyl-ethyl]-1-methyl-N4-(spiro[2.3]hexan-2-ylmethyl)pyrazolo[3,4-d]pyrimidine-4,6-diamine], the IC50 on BCDIN3D [1] was determined as 28 nM; at BCDIN3D [2] it was 56 nM.

In the case of `Cn1ncc2c(NCC3CCC3)nc(NC[C@H](N)c3ccccc3)nc21` [Compound 4.105, N6-[(2R)-2-amino-2-phenyl-ethyl]-N4-(cyclobutylmethyl)-1-methyl-pyrazolo[3,4-d]pyrimidine-4,6-diamine], the values for the IC50 on BCDIN3D [1] and on BCDIN3D [2] were 74 nM and 144 nM, respectively.

Take `Cn1ncc2c(NCC3CCC3(F)F)nc(NC[C@H](N)c3ccccc3)nc21` (stereo partly drawn) [Compound 4.106, N6-[(2R)-2-amino-2-phenyl-ethyl]-N4-[(2,2-difluorocyclobutyl)methyl]-1-methyl-pyrazolo[3,4-d]pyrimidine-4,6-diamine]: the IC50 against BCDIN3D [1] was 149 nM; on BCDIN3D [2], 437 nM.

Consider `Cn1ncc2c(NCC3(F)CCC3)nc(NC[C@H](N)c3ccccc3)nc21` [Compound 4.107, N6-[(2R)-2-amino-2-phenyl-ethyl]-N4-[(1-fluorocyclobutyl)methyl]-1-methyl-pyrazolo[3,4-d]pyrimidine-4,6-diamine], for which the results for the IC50 against BCDIN3D [1] and against BCDIN3D [2] were 280 nM and 618 nM, respectively.

For the compound `Cn1ncc2c(NCC3CC(F)C3)nc(NC[C@H](N)c3ccccc3)nc21` (stereo partly drawn) [Compound 4.108, N6-[(2R)-2-amino-2-phenyl-ethyl]-N4-[(3-fluorocyclobutyl)methyl]-1-methyl-pyrazolo[3,4-d]pyrimidine-4,6-diamine], the values for the IC50 against BCDIN3D [1] and on BCDIN3D [2] were 288 nM and 611 nM, respectively.

In general, IC50 refers to the concentration needed to halve the response being measured. A lower IC50 goes with greater potency in that assay.
